Laboratory results: the supplement of paper PMC5908809

How the values were obtained:
[1] = tested on: normal NK cells expanded with K562-aAPC; assay: percent inhibition of viability; higher = more inhibition; settings: 72 h, IL-2 2.5 ng/mL
Description: (§1)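 Drug sensitivity and resistance testing on K562-aAPC-expanded normal NK cells: 5 concentrations (10-fold steps over a 10,000-fold range), 72 h at 37 °C, viability by CellTiter-Glo normalised to DMSO and benzethonium chloride controls; DSS from the fitted curve.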

DERL-7 (IL-2 2.5 ng/mL) [2] = assay: as above; settings: 72 h
IMC-1 (IL-2 20 ng/mL) [3] = assay: as above; settings: 72 h
KAI3 (IL-2 2.5 ng/mL) [4] = assay: as above; settings: 72 h
KHYG-1 (IL-2 2.5 ng/mL) [5] = assay: as above; settings: 72 h
NK-92 (IL-2 2.5 ng/mL) [6] = assay: as above; settings: 72 h
NK-YS (IL-2 2.5 ng/mL) [7] = assay: as above; settings: 72 h
NKL (IL-2 2.5 ng/mL) [8] = assay: as above; settings: 72 h
SNK-6 (IL-2 2.5 ng/mL) [9] = assay: as above; settings: 72 h
YT (IL-2 2.5 ng/mL) [10] = assay: as above; settings: 72 h
[11] = tested on: normal primary NK cells, pool 1 (3 donors) (IL-2 2.5 ng/mL); assay: as above; settings: 72 h
[12] = tested on: normal primary NK cells, pool 1 (3 donors), resting (IL-2 0 ng/mL); assay: as above; settings: 72 h
[13] = tested on: normal primary NK cells, pool 2 (3 donors) (IL-2 2.5 ng/mL); assay: as above; settings: 72 h
[14] = tested on: normal primary NK cells, pool 3 (3 donors) (IL-2 2.5 ng/mL); assay: as above; settings: 72 h
[15] = tested on: normal NK cells expanded with K562-aAPC; assay: drug sensitivity score (DSS) (DSS units); higher = more sensitive; extreme values may be limits of the assay; settings: 72 h; IL-2 2.5 ng/mL
Description: as §1

DERL-7 (IL-2 2.5 ng/mL) [16] = assay: as above; settings: 72 h
IMC-1 (IL-2 20 ng/mL) [17] = assay: as above; settings: 72 h
KAI3 (IL-2 2.5 ng/mL) [18] = assay: as above; settings: 72 h
KHYG-1 (IL-2 2.5 ng/mL) [19] = assay: as above; settings: 72 h
NK-92 (IL-2 2.5 ng/mL) [20] = assay: as above; settings: 72 h
NK-YS (IL-2 2.5 ng/mL) [21] = assay: as above; settings: 72 h
NKL (IL-2 2.5 ng/mL) [22] = assay: as above; settings: 72 h
SNK-6 (IL-2 2.5 ng/mL) [23] = assay: as above; settings: 72 h
YT (IL-2 2.5 ng/mL) [24] = assay: as above; settings: 72 h
[25] = tested on: normal primary NK cells, pool 1 (3 donors) (IL-2 2.5 ng/mL); assay: as above; settings: 72 h
[26] = tested on: normal primary NK cells, pool 1 (3 donors), resting (IL-2 0 ng/mL); assay: as above; settings: 72 h
[27] = tested on: normal primary NK cells, pool 2 (3 donors) (IL-2 2.5 ng/mL); assay: as above; settings: 72 h
[28] = tested on: normal primary NK cells, pool 3 (3 donors) (IL-2 2.5 ng/mL); assay: as above; settings: 72 h

O=C1NC(=O)[C@@H](c2cn3c4c(cccc24)CCC3)[C@@H]1c1c[nH]c2ccccc12 [Tivantinib] (max concentration tested 1000 nM)
percent inhibition of viability [%]
Settings | 0.1 nM | 1 nM | 10 nM | 100 nM | 1000 nM
DERL-7 (IL-2 2.5 ng/mL) [2] | 1.35 | 4.31 | 5.17 | -5.73 | 98.9
IMC-1 (IL-2 20 ng/mL) [3] | -2.06 | -7.71 | 1.1 | 0.97 | 97.6
KAI3 (IL-2 2.5 ng/mL) [4] | -4.06 | 0.6 | 3.77 | 11.4 | 52.4
KHYG-1 (IL-2 2.5 ng/mL) [5] | 0.89 | -0.35 | 5.11 | 11.5 | 99.1
NK-92 (IL-2 2.5 ng/mL) [6] | -9.63 | -0.01 | -3.88 | 39 | 94.7
NK-YS (IL-2 2.5 ng/mL) [7] | 0.78 | -2.63 | 4.33 | 31.1 | 73.6
NKL (IL-2 2.5 ng/mL) [8] | -20.3 | -13.1 | -9.15 | -9.89 | 84.3
SNK-6 (IL-2 2.5 ng/mL) [9] | 9.19 | 0.24 | 0.91 | 70.4 | 83.3
YT (IL-2 2.5 ng/mL) [10] | -0.05 | -2.14 | 2.38 | 8.83 | 93.5
[1] | 4.66 | 1 | 5.6 | 5.87 | 61
[11] | -0.92 | 0.64 | -7.52 | -8.4 | 6.83
[12] | -0.8 | 10.8 | 3.09 | 6.28 | 8.64
[13] | -7.65 | -12.3 | -6.73 | 13.4 | 23.2
[14] | -12.8 | -3.79 | -11.9 | 5.81 | 17.4

Settings | drug sensitivity score
DERL-7 (IL-2 2.5 ng/mL) [16] | 5.07
IMC-1 (IL-2 20 ng/mL) [17] | 5.57
KAI3 (IL-2 2.5 ng/mL) [18] | 4.63
KHYG-1 (IL-2 2.5 ng/mL) [19] | 7.4
NK-92 (IL-2 2.5 ng/mL) [20] | 10.4
NK-YS (IL-2 2.5 ng/mL) [21] | 7.74
NKL (IL-2 2.5 ng/mL) [22] | 4.03
SNK-6 (IL-2 2.5 ng/mL) [23] | 12.9
YT (IL-2 2.5 ng/mL) [24] | 6.61
[15] | 4.27
[25] | 0
[26] | 0
[27] | 2.26
[28] | 1

O=C(O)c1ccc(-c2c[nH]c3ncc(-c4ccccc4)cc23)cc1C1CCCC1 (max concentration tested 10000 nM)
percent inhibition of viability [%]
Settings | 1 nM | 10 nM | 100 nM | 1000 nM | 10000 nM
DERL-7 (IL-2 2.5 ng/mL) [2] | -9.96 | -1.92 | -0.6 | 3.14 | 69
IMC-1 (IL-2 20 ng/mL) [3] | -3.86 | -6.5 | -2.05 | 1.32 | 72.7
KAI3 (IL-2 2.5 ng/mL) [4] | 14.8 | 11.5 | 12.9 | 31 | 53.1
KHYG-1 (IL-2 2.5 ng/mL) [5] | 1.54 | -1.17 | 6.23 | 24.4 | 87.8
NK-92 (IL-2 2.5 ng/mL) [6] | -7.79 | -6.02 | -14.8 | 6.45 | 63.1
NK-YS (IL-2 2.5 ng/mL) [7] | 3.9 | -4.11 | 6.44 | 17.4 | 53.2
NKL (IL-2 2.5 ng/mL) [8] | -3 | 3.11 | 11.4 | 27.3 | 76.9
SNK-6 (IL-2 2.5 ng/mL) [9] | 2.78 | -21.4 | -20.9 | -24.3 | -8.86
YT (IL-2 2.5 ng/mL) [10] | 3.57 | -0.35 | 6.38 | 10.9 | 43.5
[1] | 0.69 | -1.15 | 0.93 | 14.6 | 68.6
[11] | -4.88 | 9.93 | 9.09 | 13.8 | 33.7
[12] | -0.46 | 4.28 | 6.33 | 11.9 | 41.2
[13] | -5.78 | -5.79 | -4.92 | 6.53 | 46
[14] | 2.83 | 5.65 | 10 | 2.66 | 25.9

Settings | drug sensitivity score
DERL-7 (IL-2 2.5 ng/mL) [16] | 4.22
IMC-1 (IL-2 20 ng/mL) [17] | 4.18
KAI3 (IL-2 2.5 ng/mL) [18] | 8.09
KHYG-1 (IL-2 2.5 ng/mL) [19] | 8.41
NK-92 (IL-2 2.5 ng/mL) [20] | 4.5
NK-YS (IL-2 2.5 ng/mL) [21] | 4.89
NKL (IL-2 2.5 ng/mL) [22] | 7.3
SNK-6 (IL-2 2.5 ng/mL) [23] | 0
YT (IL-2 2.5 ng/mL) [24] | 3.73
[15] | 6.12
[25] | 3.22
[26] | 3.47
[27] | 3.48
[28] | 1.43

O=P1(NCCCl)OCCCN1CCCl (configuration not stated) [Ifosfamide] (max concentration tested 10000 nM)
percent inhibition of viability [%]
Settings | 1 nM | 10 nM | 100 nM | 1000 nM | 10000 nM
DERL-7 (IL-2 2.5 ng/mL) [2] | -5.51 | -7.54 | -1.33 | -3.22 | -6.83
IMC-1 (IL-2 20 ng/mL) [3] | -7.45 | -2.99 | -8.91 | -4.46 | -9.5
KAI3 (IL-2 2.5 ng/mL) [4] | -7.61 | -11.2 | -10.2 | -6.62 | -0.66
KHYG-1 (IL-2 2.5 ng/mL) [5] | -2.87 | -4.29 | -7.54 | -5.28 | -6.85
NK-92 (IL-2 2.5 ng/mL) [6] | -16.3 | -6.46 | -7.42 | -21.1 | -17.7
NK-YS (IL-2 2.5 ng/mL) [7] | -1.93 | -4.42 | -4.13 | 1.8 | -4.59
NKL (IL-2 2.5 ng/mL) [8] | -15.9 | -21.4 | -20.8 | -20.4 | -25.2
SNK-6 (IL-2 2.5 ng/mL) [9] | 9.44 | 6.95 | -7.05 | -1.13 | -14.1
YT (IL-2 2.5 ng/mL) [10] | -4.47 | -6.22 | -6.55 | -4.33 | -5.88
[1] | -2.46 | -7.15 | -2.89 | -5.04 | -1.58
[11] | -11.2 | -7.35 | -2.79 | -2.71 | 1.61
[12] | -18.3 | -6.52 | 1.44 | -5.18 | 12.7
[13] | -7.91 | -9.22 | -9.46 | -8.83 | -4.62
[14] | -13.4 | -7.36 | -10.1 | -8.46 | -1.46

Settings | drug sensitivity score
DERL-7 (IL-2 2.5 ng/mL) [16] | 0
IMC-1 (IL-2 20 ng/mL) [17] | 0
KAI3 (IL-2 2.5 ng/mL) [18] | 0
KHYG-1 (IL-2 2.5 ng/mL) [19] | 0
NK-92 (IL-2 2.5 ng/mL) [20] | 0
NK-YS (IL-2 2.5 ng/mL) [21] | 0
NKL (IL-2 2.5 ng/mL) [22] | 0
SNK-6 (IL-2 2.5 ng/mL) [23] | 0
YT (IL-2 2.5 ng/mL) [24] | 0
[15] | 0
[25] | 0
[26] | 0.02
[27] | 0
[28] | 0
